What was measured:
[1] = biological target: T1, STING (Mus musculus, UniProt Q3TBT3); assay: Blue native gel assay of STING clusters; assay type: cell-based; set-up: expressed in transfected cells; host or cells: HEK293T; details: C-178, C-176 1 µM, 2-BP 50 µM; CMA 1.5 h
T1 sequence (Q3TBT3 1-378): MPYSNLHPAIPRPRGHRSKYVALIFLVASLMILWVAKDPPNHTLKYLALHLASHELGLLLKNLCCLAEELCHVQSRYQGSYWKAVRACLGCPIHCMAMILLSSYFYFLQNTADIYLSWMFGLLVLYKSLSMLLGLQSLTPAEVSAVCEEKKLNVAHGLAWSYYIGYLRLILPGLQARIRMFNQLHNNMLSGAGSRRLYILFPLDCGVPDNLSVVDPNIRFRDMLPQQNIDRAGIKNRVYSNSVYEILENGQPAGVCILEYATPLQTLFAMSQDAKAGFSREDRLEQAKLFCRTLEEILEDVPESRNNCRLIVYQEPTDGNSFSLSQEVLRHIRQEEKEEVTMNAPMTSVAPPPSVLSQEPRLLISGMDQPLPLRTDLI
Method: (§1) Reporter activity was measured 16 h after compound treatment. A nonlinear regression analysis was performed. […] Circles indicate substitutes compared to C-176. d, e, Chemical compounds from (c) were tested at 0.5 µM for inhibitory activity in HEK293T cells transfected with STING (e) or RIG-I (f) in conjunction with IFN-• luciferase reporter, respectively. b, e, f, Values of inhibitor-treated cells were normalized to DMSO-treated cells. […] Cytokine levels were normalized to DMSO-treated control cells. A nonlinear regression analysis was performed for cGAMP stimulation. b, c, BMDMs were pre-treated with C-178 (0.25 µM) and stimulated with cGAMP, cyclic di-GMP, CMA, 90mer dsDNA or LPS for 3 h. The induction of Ifnb1 mRNA levels was assessed by RT-qPCR. d, Heatmaps of RNA sequencing analysis of BMDMs treated with DMSO or CMA and with or without addition of C-178. […] Reporter activity was measured 16 h after transfection and values were normalized to DMSO-treated control cells. c, BMDMs were treated with C-178 (0.25 µM) for 1 h, washed or left untreated and after an additional hour stimulated with cGAMP. […] Flag-STING was immunoprecipitated from whole cell lysate and analysed by autoradiography. In parallel, cell lysates were analysed by immunoblotting for p-TBK1 and STING. d, HEK293T cells expressing STING were treated as indicated (C-178 (1 µM)) and stimulated with CMA for 1.5 h. […]

[2] = biological target: T1, STING; assay: IFN-beta luciferase reporter in HEK293T cells transfected with STING, alone or with a cyclic dinucleotide synthase; assay type: cell-based; set-up: expressed in transfected cells; host or cells: HEK293T
Method: Reporter activity was measured 16 h after compound treatment. A nonlinear regression analysis was performed. […] Cytokine levels were normalized to DMSO-treated control cells. […] Nuclei were stained with DAPI. […] Depicted genes were measured by RT-qPCR. […] 16 h later Luciferase activity was measured. […] Flag-STING was immunoprecipitated and analysed by autoradiography.
HEK293T cells expressing murine STING with an N-terminal mCherry-tag ^28 were transfected using GeneJuice (Millipore) with a construct encoding for cyclic di-GMP synthase in conjunction with an IFN-• firefly luciferase reporter plasmid. 3 h after transfection cells were seeded in […] (Corning) coated with library compounds. For each compounds, a 40 nl volume was selected to obtain a concentration of 10 µM in the assay plates. The amount of DMSO in each well was normalised to 0.1%. After overnight treatment, cells were lysed in lysis buffer (25 mM Tris-phosphate (pH 7.8), 2 mM DTT, 2 mM 1,2-diaminocyclohexane-N,N,N',N'-tetraacetic acid, 10% glycerol, 1% Triton® X-100) for 20 min followed by the addition of firefly luciferase. Reporter activity was measured using a Tecan Infinite plate reader. The screen was performed using on ∼ 20.000 compounds from a chemically diverse compound collection available at the BSF core facility at EPFL.
In these cells, transient transfection of vectors encoding for cyclic di-GMP synthase (cdG-Syn) and an IFN-• reporter leads to robust induction of firefly luciferase activity. We used this system to perform a high-throughput chemical screen with a library of ∼ 20.000 small molecule compounds (Fig. 6b). To increase the selectivity of candidate compounds against the STING pathway, hits from the primary screen were counter-screened for their effect on RIG-I-driven activation of the IFN-• reporter. […] To further validate the two small molecules, we treated wild-type HEK293T cells with C-178 and C-176, in which STING was either expressed alone or in conjunction with cdG-Syn. […] We next conducted a limited structure-activity relationship (SAR) analysis. Since both C-178 and C-176 share a characteristic nitrofuran moiety, we prepared analogues of C-176/8 in which this structural motif was substituted (Fig. 1c).

[3] = biological target: T1, STING; assay: Type I IFN bioassay of BMDMs stimulated with cGAMP; assay type: cell-based; set-up: endogenous in cells; host or cells: BMDMs from wild type mice; details: BMDMs pre-treated, 0.02 µM- 2.5 µM, read-out: calculated IC50, production of type I IFNs
Method: as §1

[4] = biological target: T2, hsSTING(AA1-138)-mmSTING(AA138-378) (UniProt Q3TBT3+Q86WV6); assay: IFN reporter in HEK293T cells, chimeric construct 1; assay type: cell-based; details: reversed construct (human N-terminal, mouse C-terminal part); 0.5 µm
T2 construct: hsSTING(AA1-138)-mmSTING(AA138-378); expressed in transfected cells; host or cells: HEK293T
T2 sequence (Q86WV6 1-138, one chain of several): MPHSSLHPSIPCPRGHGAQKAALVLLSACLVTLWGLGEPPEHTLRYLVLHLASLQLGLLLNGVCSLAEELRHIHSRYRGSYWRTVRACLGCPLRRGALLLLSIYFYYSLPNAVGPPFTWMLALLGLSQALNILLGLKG
Method: as §1

[5] = system: BMDMs; assay: RNA sequencing of BMDMs with or without CMA; assay type: cell-based, mouse; details: pre-treatment with C-178, CMA
Method: as §1

[6] = biological target: T3, TLR-4 (Mus musculus, UniProt Q9QUK6); assay: Ifnb1 mRNA (RT-qPCR) in BMDMs stimulated with LPS (control); assay type: cell-based; details: 0.25 µM
T3 construct: endogenous in cells; host or cells: BMDMs from wild type mice
T3 sequence (Q9QUK6 26-835): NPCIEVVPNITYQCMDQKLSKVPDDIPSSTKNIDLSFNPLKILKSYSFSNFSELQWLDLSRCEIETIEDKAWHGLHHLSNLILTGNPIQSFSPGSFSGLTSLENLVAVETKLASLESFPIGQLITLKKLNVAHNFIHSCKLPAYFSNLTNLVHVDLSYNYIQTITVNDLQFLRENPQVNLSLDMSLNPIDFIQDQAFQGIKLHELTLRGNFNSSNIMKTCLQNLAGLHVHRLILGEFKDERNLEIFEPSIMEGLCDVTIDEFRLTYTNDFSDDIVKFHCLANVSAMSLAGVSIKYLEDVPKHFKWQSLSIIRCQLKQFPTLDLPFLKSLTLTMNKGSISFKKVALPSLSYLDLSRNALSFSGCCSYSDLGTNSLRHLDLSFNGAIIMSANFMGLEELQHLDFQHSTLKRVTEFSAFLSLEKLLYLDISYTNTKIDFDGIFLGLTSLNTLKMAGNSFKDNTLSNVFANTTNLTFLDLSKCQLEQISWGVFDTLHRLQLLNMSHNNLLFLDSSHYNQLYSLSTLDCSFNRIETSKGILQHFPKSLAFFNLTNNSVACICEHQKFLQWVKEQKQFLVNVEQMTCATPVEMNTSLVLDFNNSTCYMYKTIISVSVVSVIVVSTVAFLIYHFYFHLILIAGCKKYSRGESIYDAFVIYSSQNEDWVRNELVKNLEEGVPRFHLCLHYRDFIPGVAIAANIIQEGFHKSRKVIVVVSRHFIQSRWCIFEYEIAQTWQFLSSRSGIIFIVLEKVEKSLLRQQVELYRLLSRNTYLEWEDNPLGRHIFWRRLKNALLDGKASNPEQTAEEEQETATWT
T3 sequence (Q9JHF9 19-160 partner): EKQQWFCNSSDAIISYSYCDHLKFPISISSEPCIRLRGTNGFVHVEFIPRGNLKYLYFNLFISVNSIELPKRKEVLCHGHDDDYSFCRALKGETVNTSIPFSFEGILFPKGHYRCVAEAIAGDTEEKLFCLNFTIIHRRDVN
Method: as §1

SMILES: CCCCCCCCCCCCCCC(Br)C(=O)O (centres unmarked) [2-bromopalmitate, reference compound]
- assembly of STING clusters [1]: blocked

SMILES: O=C(Nc1ccc(I)cc1)c1ccco1 [C-176-009]
- inhibitory capacity against STING ([2]; derivatives tested at 0.5 µM, HEK293T transfected with STING): inactive

SMILES: O=C(Nc1ccc2c(c1)oc1ccccc12)c1ccc([N+](=O)[O-])o1 [C-178, N-dibenzo[b,d]furan-3-yl-5-nitro-2-furamide]
- IC50 [3]: ~23 nM
- IFN reporter activity of chimeric construct [4]: inactive
- significantly affected induced expression, number of the 500 most up-regulated genes after CMA [5]: 498
- significantly affected induced expression, share of the 500 most up-regulated genes after CMA [5]: 99.6%
- half-maximal inhibitory concentration (IC50) values, IFN-• reporter activity ([2]; wild-type HEK293T, STING expressed alone or in conjunction with cdG-Syn, 0.01-5µM, 16 h): nanomolar
- activity against the TLR-4 agonist LPS [6]: not active

— patent publication EP3502102A1, “STING INHIBITORS” (ECOLE POLYTECHNIQUE FEDERALE DE LAUSANNE (EPFL), priority 2017, dated 2019)
